Measurements reported in patent US4725598A, “Derivative of dihydroxybenzamide and a pharmaceutical composition having an anti-inflammatory activity” (priority 1983, dated 1988).
Where two headings read alike, the source gives them in different places.

Experiments:
granuloma formation = type: in vivo, male Donryu rats; settings: 10 days
Method: The activity of the present compounds in inhibiting the granuloma formation was examined according to the method of Fujimura et al. (refer to "OYO YAKURI", 19(3), 329(1981)) while using male Donryu rats of 5 weeks after birth as follows.
(§1) After burying a paper disk of 13 mm in diameter and 0.26 mm in thickness immersed in an aqueous 2% solution of carboxymethylcellulose (hereinafter referred to as CMC) containing both dihydroxystreptomycin and penicillin (both of 10^6 unit at a rate of 0.1 mg/ml) into the back of each rat under anesthesia by ether, the rats were divided into four groups. To rats of the first group, an aqueous 0.3% solution of CMC was orally administered every day for 10 days, to rat of the second group, an aqueous dispersion of one of the present compounds shown in Table 3 in an aqueous 0.3% solution of CMC was orally administered every day for 10 days and to rat of the third and fourth groups, an aqueous 0.3% solution of CMC containing either indomethacin or prednisolone was orally administered every day for 10 days.
The rate of inhibiting the granuloma formation was obtained from the following formula: [formula] wherein T is the average weight of granuloma in the test group and C is the average weight of granuloma in the control group.

adjuvant arthritis = assay: Inhibitory activity of adjuvant arthritis; type: in vivo, male Lewis rats; settings: for Increment of the volume of hind paw after 21 days of injection (I1): at beginning of administration; for Increment of the volume of hind paw after 36 days of injection (I2) / Rate of inhibiting adjuvant arthritis: 14 days
Method: The activity of the present compound in inhibiting the adjuvant arthritis was examined while using groups of male Lewis rats of 8 weeks after birth and according to the method of Fujihira et al. (refer to "OYO YAKURI", 5(2), 169, (1971)) as follows.
Groups of 8 rats were used, and to each rat of whole groups under anesthesia by ether, a Freund's complete adjuvant dissolved in mineral oil at a concentration of 0.6 mg/0.1 ml was injected intradermally into the trail thereof.
After 3 weeks of the injection, to each rat of a group an aqueous dispersion of one of the present compounds shown in Table 4 in an aqueous 0.3% solution of CMC was orally administered every day for 14 days, and to each of the control group, the aqueous 0.3% solution of CMC was administered in a similar manner, each rat of the positive control group being treated with the similar oral administration of prednisolone in the aqueous 0.3% solution of CMC. The volume of the hind paw of each rat was measured on the day of starting the administration and on the next day after finishing the administration.
The results of the test are shown in Table 4 as the increment of the volume of the hind paw and the rate of inhibiting the increase of the volume thereof.
The increment of the volume of the hind paw at the beginning of the administration, namely after 21 days of the injection of the complete adjuvant (I1), and the increment of that after the finishing of the injection, namely after 36 days of the injection of the complete adjuvant (I2) are respectively as follows.
wherein V0 is the volume of the hind paw just before the injection, V1 is that after 21 days of the injection and V2 is that after 36 days of the injection.
The rate of inhibiting the increase of the volume of the hind paw, namely the activity of treating the adjuvant arthritis is obtained by the following formula: [formula]

[1] = test system: migration of polymorphonuclear leukocytes; assay: Inhibition of migration of polymorphonuclear leukocytes, in vivo pouch-CMC method; parameters: species or system male Donryu rats
Method: The activity of each of the present compounds in in vivo inhibiting the migration of polymorphonuclear leukocytes was examined by the pouch-CMC method presented by Ishikawa (refer to J. Pharmaceut. Soc., Japan, 88, 1472, 1968) using male Donryu rats.
After cutting the hairs on the back of each male Donryu rat at a 5 cm square, 5 ml of air were subcutaneously injected into the hair-cut position, and after 24 hours of the injection, 5 ml of a 0.2% solution of sodium carboxymethylcellulose in a saline was injected into the pouch made by the injected air.
After dividing the rats into 3 groups, an aqueous 0.2% solution of carboxymethylcellulose was orally administered to each rat of the first group at a rate of 1 ml/100 g body weight (as control), and each of the present compounds (Compounds Nos. 1, 2 and 4) was orally administered to each rat of the second group after suspending the compound in an aqueous 0.2% solution of carboxymethylcellulose. Each rat of the third group is orally administered with an aqueous solution of indomethacin as positive control.
After 3 and 6 hours of the injection, the exudates in the pouch were collected from each rat, and the number of polymorphonuclear leukocytes (hereinafter referred to as PMN) exudated was counted and, the results are shown in Table 2.

platelet aggregation = assay: Inhibitory activity of platelet aggregation (sodium arachidonate induced, platelet-rich plasma); type: cell-based; settings: Oryctolagus cuniculus, rabbit plasma, sodium arachidonate 400 μM, read-out: IC100 (concentration necessary for inhibiting platelet aggregation perfectly)
Method: After collecting blood specimen from the auricular vein of a male rabbit of an ordinary race in the presence of citrate, the thus collected blood was subjected to centrifugation to obtain a platelet-rich plasma (PRP) and a platelet-poor plasma (PPP) therefrom. The plasma containing 300,000 platelets/μl was prepared by diluting the PRP with the PPP, and divided equally into two portions.
Into the first portion of the thus obtained plasma mixture, as control, dimethylsulfoxide was added, and then, an aqueous solution of sodium arachidonate as an aggregation agent prepared by dissolving thereof into a saline solution was added to the resultant mixture to adjust the final concentration of the arachidonate therein to 400 μM.
On the other hand, into the second portion thereof, a solution of each of the present compounds shown in Table 1 in dimethylsulfoxide was added, and then, the above-mentioned aqueous solution of sodium arachidonate was added to the resultant mixture.
The platelet aggregation reactions were measured with the aid of a platelet aggregation tracer (model PAT-4A, made by NIKO Bioscience Co., Ltd.) and its IC100 values (the concentration of an agent necessary for inhibiting platelet aggregation perfectly) are shown in Table 1.

[2] = parameters: species or system male Donryu rats; settings: rat, in vivo
Method: as §1

SMILES | Rate of inhibition of granuloma formation (granuloma formation; 25 mg/kg/day oral) | Weight of dried granuloma (granuloma formation; 25 mg/kg/day oral) | Rate of inhibition of granuloma formation (granuloma formation; 50 mg/kg/day oral) | Weight of dried granuloma (granuloma formation; 50 mg/kg/day oral) | Inhibition rate of exudation of PMN ([1]; after 3 hr, 50 mg/kg oral) | Number of PMN in exudated liquid ([1]; after 3 hr, 50 mg/kg oral) | Inhibition rate of exudation of PMN ([1]; after 6 hr, 50 mg/kg oral) | Number of PMN in exudated liquid ([1]; after 6 hr, 50 mg/kg oral) | IC100 (platelet aggregation) | further results
CCCCCCCCNC(=O)c1ccc(O)c(O)c1 [Compound No. 1, N-(n-octyl)-3,4-dihydroxybenzamide] | 53% | 135 mg | 72% | 80 mg | 51.0% | 2.4 (number/mm^3) × 10^3 | 22.9% | 16.8 (number/mm^3) × 10^3 | < 18 µM | Increment of the volume of hind paw after 21 days of injection (I1) (adjuvant arthritis; 25 mg/kg/day group): 1.29 mL; Increment of the volume of hind paw after 36 days of injection (I2) (adjuvant arthritis; 25 mg/kg/day oral): 0.65 mL; Rate of inhibiting adjuvant arthritis (adjuvant arthritis; 25 mg/kg/day oral): 50%; Increment of the volume of hind paw after 21 days of injection (I1) (adjuvant arthritis; 50 mg/kg/day group): 1.28 mL; Increment of the volume of hind paw after 36 days of injection (I2) (adjuvant arthritis; 50 mg/kg/day oral): 0.59 mL; Rate of inhibiting adjuvant arthritis (adjuvant arthritis; 50 mg/kg/day oral): 54%
O=C(Nc1ccccn1)c1ccc(O)c(O)c1 [Compound No. 2, N--(2-pyridyl)-3,4-dihydroxybenzamide] | 64% | 98 mg | 76% | 69 mg | 53.1% | 2.3 (number/mm^3) × 10^3 | 37.6% | 13.6 (number/mm^3) × 10^3 | 25 µM | Increment of the volume of hind paw after 21 days of injection (I1) (adjuvant arthritis; 25 mg/kg/day group): 1.32 mL; Increment of the volume of hind paw after 36 days of injection (I2) (adjuvant arthritis; 25 mg/kg/day oral): 0.51 mL; Rate of inhibiting adjuvant arthritis (adjuvant arthritis; 25 mg/kg/day oral): 61%; Increment of the volume of hind paw after 21 days of injection (I1) (adjuvant arthritis; 50 mg/kg/day group): 1.30 mL; Increment of the volume of hind paw after 36 days of injection (I2) (adjuvant arthritis; 50 mg/kg/day oral): 0.53 mL; Rate of inhibiting adjuvant arthritis (adjuvant arthritis; 50 mg/kg/day oral): 59%
CCCCNC(=O)c1ccc(O)c(O)c1 [compound 3, N--(n-butyl)-3,4-dihydroxybenzamide] |  |  |  |  |  |  |  |  | 45 µM | 
O=C(c1ccc(O)c(O)c1)N1CCCCC1 [compound 4, 3,4-dihydroxybenzpiperidide] | 49% | 146 mg | 65% | 101 mg | 46.9% | 2.6 (number/mm^3) × 10^3 | 25.2% | 16.3 (number/mm^3) × 10^3 | 65 µM | 
CCCCCCCCCCCCNC(=O)c1ccc(O)c(O)c1 [compound 5, N--(n-dodecyl)-3,4-dihydroxybenzamide] |  |  |  |  |  |  |  |  | < 18 µM | 
O=C(NCCCc1ccccc1)c1ccc(O)c(O)c1 [compound 6, N--(ω-phenylpropyl)-3,4-dihydroxybenzamide] |  |  |  |  |  |  |  |  | 80 µM | 
CN1CCN(C(=O)c2ccc(O)c(O)c2)CC1 [compound 7, 3,4-dihydroxybenz-N--methylpiperazide] |  |  |  |  |  |  |  |  | 300 µM | 
COc1ccc2c(c1)c(CC(=O)O)c(C)n2C(=O)c1ccc(Cl)cc1 [indomethacin, reference compound] |  |  |  |  |  |  |  |  |  | Rate of inhibition of granuloma formation (granuloma formation; 3 mg/kg/day oral): 39%; Weight of dried granuloma (granuloma formation; 3 mg/kg/day oral): 175 mg; Inhibition rate of exudation of PMN ([1]; after 3 hr, 3 mg/kg oral): 20.4%; Number of PMN in exudated liquid ([1]; after 3 hr, 3 mg/kg oral): 3.9 (number/mm^3) × 10^3; Inhibition rate of exudation of PMN ([1]; after 6 hr, 3 mg/kg oral): 22.0%; Number of PMN in exudated liquid ([1]; after 6 hr, 3 mg/kg oral): 17.0 (number/mm^3) × 10^3; autopsy findings, gastric [2]: hemorrhage from the gastric mucosa and formation of stomach ulcer were found
C[C@]12C=CC(=O)C=C1CC[C@@H]1[C@@H]2[C@@H](O)C[C@@]2(C)[C@H]1CC[C@]2(O)C(=O)CO [prednisolone, reference compound] |  |  |  |  |  |  |  |  |  | Rate of inhibition of granuloma formation (granuloma formation; 3 mg/kg/day oral): 45%; Weight of dried granuloma (granuloma formation; 3 mg/kg/day oral): 158 mg; Increment of the volume of hind paw after 21 days of injection (I1) (adjuvant arthritis; 3 mg/kg/day group): 1.27 mL; Increment of the volume of hind paw after 36 days of injection (I2) (adjuvant arthritis; 3 mg/kg/day oral): 0.71 mL; Rate of inhibiting adjuvant arthritis (adjuvant arthritis; 3 mg/kg/day oral): 44%; autopsy findings, gastric [2]: hemorrhage from the gastric mucosa and formation of stomach ulcer were found; autopsy findings, thymus [2]: atrophy of the thymus was significantly found
